Data from patent publication US20230218639A1, “USE OF OXYGENATED CHOLESTEROL SULFATES FOR TREATING NEUROLOGICAL CONDITIONS, NEURODEGENERATIVE DISEASES, AND ADDICTION” (Durect Corporation, priority 2020, published 2023).

What was measured:
[1] = test system: CpG sites in promoter regions of LINE-1 element, Huh-7 cells; experiment: LINE-1 global methylation assay; format: cell-based, human; conditions: Huh-7 cells in HG media, 25HC3S for 4 hours
Description: Each sample, 2 μg, was sent to […], Inc. (Hopkinton, Mass.) for analysis of global methylation bisulfite sequencing. The same samples, 6 μg, were sent to Novogene Co., Ltd (Tianjin, China) for analysis of whole genome bisulfite sequencing (WGBS). Total RNA was isolated using the Promega SV total RNA isolation system (Madison, Wis.) with DNase treatment. […] Real-time RT-PCR was performed using SYBR Green as the indicator on ABI 7500 Fast Real-Time PCR System (Applied Biosystems, Foster City, Calif.). Amplifications of β-actin or GAPDH were used as internal controls. Relative messenger RNA (mRNA) expression was quantified with the comparative cycle threshold (Ct) method using the primer set shown in Table 1.1 and was expressed as 2^-ΔΔCt. […] PCR reaction and product purification were performed as per the manufacturer's protocol (GE Healthcare Life Sciences). The PCR products, 10 μl, were sequenced by Pyrosequencing on the PSQ96 HS System following the manufacturer's instructions (Pyrosequencing, Qiagen). The methylation status of each CpG site was determined individually as an artificial C/T SNP using QCpG software (Pyrosequencing, Qiagen). The methylation level at each CpG site was calculated as the percentage of the methylated alleles divided by the sum of all methylated and unmethylated alleles. The mean methylation level was calculated using methylation levels of all measured CpG sites within the targeted region of each gene. Each experiment included non-CpG cytosines as internal controls to detect incomplete bisulfite conversion of the input DNA. In addition, a series of unmethylated and methylated DNA were included as controls in each PCR assay. Furthermore, PCR bias testing was performed by mixing unmethylated control DNA with in vitro methylated DNA at different ratios (0%, 5%, 10%, 25%, 50%, 75%, and 100%), followed by bisulfite modification, PCR, and Pyro-sequencing analysis.

[2] = test system: Huh-7 cells; experiment: Real-time RT-PCR gene expression; format: cell-based, human; conditions: Huh-7, HG 72 hours; 25HC3S 6.25-50 μM, 1-8 hours
Description: FIGS. 3A-3D. Expression of key genes related to signaling pathways. […] Key Genes and their targeting genes expression were determined by RT-PCR analysis. […] Each sample, 2 μg, was sent to […], Inc. (Hopkinton, Mass.) for analysis of global methylation bisulfite sequencing. The same samples, 6 μg, were sent to Novogene Co., Ltd (Tianjin, China) for analysis of whole genome bisulfite sequencing (WGBS). Total RNA was isolated using the Promega SV total RNA isolation system (Madison, Wis.) with DNase treatment. […] Real-time RT-PCR was performed using SYBR Green as the indicator on ABI 7500 Fast Real-Time PCR System (Applied Biosystems, Foster City, Calif.). Amplifications of β-actin or GAPDH were used as internal controls. Relative messenger RNA (mRNA) expression was quantified with the comparative cycle threshold (Ct) method using the primer set shown in Table 1.1 and was expressed as 2^-ΔΔCt.

[3] = Tissue distribution by quantitative whole body autoradiography, intravenous dose; format: in vivo, Sprague Dawley rats; conditions: intravenous 10 mg/kg
Description: Nine male Sprague Dawley rats (Group 1) were designated for the pharmacokinetic phase, 3 male Sprague Dawley rats (Group 2) for the excretion mass balance phase, and 7 male Sprague Dawley rats (Group 3) and 9 male Long Evans rats (Group 4) for the tissue distribution phase. All animals received a single intravenous dose of [^14C]-25HC3S at 10 mg/kg and a target radioactivity of 225 μCi/kg. Blood samples were collected from all Group 1 animals at approximately 0.083, 0.25, 0.5, 1, 2, 4, 8, 12, 24, 48, and 72 hours post-dose. Urine and feces were collected from all Group 2 animals periodically through 168 hours post-dose. […] Following blood collection, animals were euthanized by CO2 inhalation and carcasses frozen in a dry ice/hexane bath for processing by quantitative whole body autoradiography. Whole blood, plasma, urine, feces, cage rinse, and cage wash were analyzed for total radioactivity by liquid scintillation counting.

C[C@H](CCCC(C)(C)O)[C@H]1CC[C@H]2[C@@H]3CC=C4C[C@@H](OS(=O)(=O)O)CC[C@]4(C)[C@H]3CC[C@]12C [25HC3S, 5-Cholesten-3β, 25-diol 3-sulfate]
Reduction of methylation (demethylation) at Pos1 of LINE-1 [1]: −5% | Reduction of methylation (demethylation) at Pos3 of LINE-1 [1]: −10% | Reduction of methylation (demethylation) at Pos 4 of LINE-1 [1]: −5.6% | decreased expression of FAS [2]: ~90% | decreased expression of HMGR [2]: ~90% | increased expression of CREB5 [2]: up to 20 fold | increased expression of DUSP8 [2]: 5 fold | increased expression of PGC1A [2]: 12 fold | AUClast in liver [3]: ≤ 364,000 h ng/g | tissues in which radioactivity was detected [3]: all tissues except the eye (lens) | whole blood AUClast [3]: 25,200 h*ng-equiv./g | T1/2 in plasma ([3]; QWBA phase): 44.3 h | T1/2 in whole blood ([3]; QWBA phase): 52.2 h
